Patent US5811393A (The Childrens Medical Center Corp., priority 1993, dated 1998)

Experiments:
[1] = tested on: EGF receptors on BASMC; assay: Competitive [125I]EGF binding to bovine aortic smooth muscle cells; conditions: BASMC
Description: Competitive binding assays were used to measure this interaction and were performed as follows.

[2] = tested on: EGF receptor; assay: EGF receptor autophosphorylation in A-431 cells (anti-phosphotyrosine Western blot); type: cell-based, human; conditions: 5 ng/ml, 15 minutes
Description: This was shown by plating A-431 cells in 6-well plates and culturing in Dulbecco's Modified Eagle's Medium (DMEM) containing 10% fetal bovine serum and antibiotics. […] After 15 minutes, the cells were washed with ice-cold phosphate-buffered saline containing 0.4 mm EDTA, 10 mM Na-fluorate, 10 mM Na-pyrophosphate and 0.4 mM Na-orthovanadate, scraped and lysed in 100 μl of PI/RIPA buffer [1% NP-40 (Pierce, Rockford, Ill.), 1% deoxycholate (Aldrich, Milwaukee, Wis.), 0.1% SDS, 1% aprotinin (Boehringer-Mannheim, Indianapolis, Ind.), 1 mM PMSF (Pierce), 2 mM EDTA (Sigma), 10 mM Na-fluorate, (Sigma, St. Louis, Mo.), 10 mM Na-pyrophosphate (Baker, Phillipsburg, N.J.), 0.4 mM Na-orthovanadate, (Aldrich), 10 mM iodoacetamide (Aldrich) in phosphate buffered saline]. Thirty μl of supernatant clarified by spinning for a 5 minute period in a microfuge was analyzed by reducing SDS/polyacrylamide gel electrophoresis (6% polyacrylamide gel). […] A standard of phosphorylated EGF receptor was purchased from UBI (Lake Placid, N.Y.).

[3] = tested on: bovine aortic smooth muscle cells (BASMC); assay: Bovine aortic smooth muscle cell proliferation by cell counting; type: cell-based; conditions: cells counted after three days, 1% calf serum
Description: Bovine aortic smooth muscle cell proliferation was also assayed by counting cell number following growth factor stimulation. In these experiments, cells were plated sparsely in 24 well plates in DMEM/10% bovine calf serum/1% GPS (100% GPS is glutamine 29.2 mg/ml, penicillin 10,000 units/ml, streptomycin sulfate 10,000 μg/ml; GIBCO, Grand Island, N.Y.) at 10^4 cells/well. Test samples were then added and, after three days, cells were removed by trypsinization and counted in a Coulter counter (Coulter, Hialeah, Fla.).
BASMC were plated in DMEM, 10% calf serum, 100 U/ml penicillin, 100 μg/ml streptomycin sulfate at 5×10^3 cells/well in a 24 well plate, and, after attachment of the cells (e.g., following an overnight incubation), the media was replaced with DMEM, 1% calf serum, and penicillin and streptomycin as above. HB-EHM, recombinant human EGF (Creative Biomolecules, Hopkinton, Mass.), or recombinant PDGF (Creative Biomolecules, Hopkinton, Mass.) was then added to the wells. Cells were counted after three days.

[4] = cited from earlier work
[5] = target: EGF receptor on bovine aortic smooth muscle cells (BASMC) (bovine)
[6] = target: EGF receptor on bovine aortic smooth muscle cells (BASMC) (bovine); remark: listed apart in the source
[7] = tested on: BALB/c mouse 3T3 cells; assay: DNA synthesis ([3H]-thymidine incorporation) / proliferation of BALB/c mouse 3T3 cells; type: cell-based; conditions: E. coli-produced protein
Description: Conditioned medium was assayed for growth factor activity directly, as described below, using either fibroblasts (i.e., BALB/c mouse 3T3 cells), epithelial cells (i.e., human keratinocytes), or smooth muscle cells (i.e., bovine aortic smooth muscle cells, BASMC). Alternatively, CM was first fractionated by fast protein liquid chromatography (FPLC, Pharmacia, Piscataway, N.J.) by applying 500 ml of the CM to a TSK-heparin 5PW column (8×75 mm, TOSOHAAS, Philadelphia, Pa.). The column was washed with 10 column volumes of equilibration buffer (0.2M NaCl, 0.01M Tris-HCl, pH 7.5), and bound protein was eluted with a 40 ml linear gradient of 0.2-2M NaCl in 0.01M Tris-HCl , pH 7.4 at 1 ml/min. Fractions (2.5 ml) were tested for growth factor activity by measuring the effect of aliquots of the fractions on DNA synthesis in, or the proliferation of, BALB/c mouse 3T3 cells; such activity was monitored by assaying the incorporation of [^3 H]-thymidine into DNA and/or by measuring the increase in cell number. […] One unit of BALB/c mouse 3T3 stimulation activity was defined as the amount of growth factor required to stimulate half-maximal DNA synthesis in BALB/c mouse 3T3 cells under the conditions described in Shing et al. (supra).

## EGF: epidermal growth factor, recombinant human, commercial comparator [reference compound]
[1]; 6-well plates
  50% inhibition of [125I]EGF binding: 290 pg/mL
[1]; read-out: 50% inhibition of [125I]EGF binding, molar value in brackets
  IC50: 0.048 nM
[2]
  autophosphorylation of the EGF receptor (170 kDa protein): also phosphorylated
[3]; 4 ng/ml
  increase in BASMC proliferation: 2.5 fold
[4]; conditions of the cited references
  binding to heparin: does not bind heparin to any substantial extent

## recombinant human EGF (from UniProt P01133) (ligand)
[5]
  BASMC proliferation (cell count after three days) (fold increase): 2.5

## PDGF
[3]; 500 pg/ml
  increase in BASMC proliferation: 2.5 fold
[4]; literature values
  NaCl concentration eluting from immobilized heparin columns: 0.5 M

B1: heparin binding EGF-homologous mitogen (HB-EHM), purified from U-937 conditioned medium, 33 minute peak form (ligand)
chain: RVTLSSKPQALATPNKEEHGKRKKKGKGLGKKRDPCLRKYKDFCIHGECKYVKELRAPSCICHPGYHGERCHGLS
modifications: O-linked glycosylation (suggested by O-glycanase treatment; the threonines predicted at positions 2 and 12 of the form first sequenced were not detected in protein sequencing)
[5]
  BASMC proliferation (cell count after three days) (fold increase): 2.5
[6]
  Maximal Stimulation (ng/ml), from 3H-thymidine incorporation into smooth muscle cell DNA, C4 RP-HPLC step: 0.5 ng/mL

B2: recombinant HB-EHM: HB-EHM produced in E. coli from plasmid pNA28 as CAT fusion, cleaved, refolded and purified (protein)
chain: B1 chain
modifications: O-linked glycosylation (suggested by O-glycanase treatment; the threonines predicted at positions 2 and 12 of the form first sequenced were not detected in protein sequencing)
[7]
  activity in the BALB/c 3T3 [3H]-thymidine uptake/incorporation assay: active
